This is an account of results in paper PMC5116089, “Sulfheme formation during homocysteine S-oxygenation by catalase in cancers and neurodegenerative diseases” (Nature Communications, 2016).

The test system of one assay is HCT-116 cells. In words: H2O2 consumption in cell lysates as a function of NaSH concentration. Format: biochemical, human. To be noted: HCT-116 cell lysate; read-out: relative IC50 (rate of H2O2 consumption). As for the experimental part:
(§1) CAT activity was measured on an Uvikon 941 spectrophotometer equipped with a temperature controlled water bath (±1 °C) by following the disappearance of H2O2 at 240 nm over 30–120 s at 25 °C. Catalase activity was calculated based on the rate of decomposition of hydrogen peroxide, which is proportional to the reduction of the absorbance at 240 nm. Experiments were carried out in a 3 ml quartz cuvette containing 11.7 mM H2O2 in 50 mM KPi, pH 7.4±1 mM DTPA and the reaction was initiated by adding 0.3–0.6 pmoles of CAT. The effect of biological thiols on the activity of CAT under physiological conditions was determined from a solution of CAT (30–60 nM) preincubated at 25 °C for at least 120 min as a function thiol concentration (0–40 mM for HCys and Cys, 0–100 mM for GSH) in 50 mM KPi, pH 7.4, 1 mM DTPA. Control experiments (biological thiols alone) were also performed in parallel. In each case, 10 μl of the reaction mixture (biological thiols±CAT) was added to the cuvette containing the H2O2 solution to initiate the reaction. Similarly, the effect of biological thiols on the activity of CAT under pathological conditions was determined from a solution of CAT (30–60 nM) containing a 2.124±0.386 molar excess of iron that was preincubated with various concentrations of thiols (0–1 mM) for at least 120 min at 25 °C in 50 mM KP at pH 7.4. The relative half inhibitory concentration (IC50) values were obtained by plotting the relative activity of CAT (A, in per cent) as a function of the concentration of thiol-compounds (RSH) and by fitting the data with the following four parameter logistic equation: A=Amin+(Amax−Amin)/(1+([RSH]/IC50)^n), where Amax is the maximal activity of CAT (constrained at 100%), Amin is the minimum activity achieved at saturating concentration of RSH and n is the Hillslope that characterizes the slope of the curve at its midpoint. The inactivation rate (kinact, min^−1) was extracted from the time course of the inactivation of CAT bioactivity using a fixed concentration of HCys. Accordingly, a solution of CAT (3.5–5 μM) was incubated with 2 mM L-HCys in 50 mM KPi, pH 7.4, 1 mM DTPA. Aliquots (10 μl) were taken at intervals (0–480 min), diluted 1:50 in 50 mM KPi, pH 7.4, 1 mM DTPA and assayed for CAT activity as described above. […] The effect of NaSH on the consumption of H2O2 in cell lysates was determined from a solution of cell lysates (0.5–3 mg ml^−1) incubated on ice with various concentrations of NaSH (0–200 μM). […]

The next assay deals with HCT-15 cells. The description is as above. Particulars: HCT-15 cell lysate; read-out: relative IC50 (rate of H2O2 consumption). Format: biochemical, human. As for the experimental part: as §1
The test system of a further assay is HT-29 Glc−/+ cells. The assay is described as above. Format: biochemical, human. To be noted: HT-29 Glc−/+ cell lysate (control line); read-out: relative IC50 (rate of H2O2 consumption). On the procedure: as §1
A further assay relates to MDST8 cells. The description is as above. Format: biochemical, human. Particulars: MDST8 cell lysate; read-out: relative IC50 (rate of H2O2 consumption). On the procedure:
as §1

A further assay deals with T1, Bovine liver catalase (Bos taurus, UniProt P00432).
T1 construct: Bovine liver catalase was also purchased from Sigma-Aldrich; purchased Sigma-Aldrich; host or cells: bovine liver
T1 sequence (P00432 2-527 limits assumed): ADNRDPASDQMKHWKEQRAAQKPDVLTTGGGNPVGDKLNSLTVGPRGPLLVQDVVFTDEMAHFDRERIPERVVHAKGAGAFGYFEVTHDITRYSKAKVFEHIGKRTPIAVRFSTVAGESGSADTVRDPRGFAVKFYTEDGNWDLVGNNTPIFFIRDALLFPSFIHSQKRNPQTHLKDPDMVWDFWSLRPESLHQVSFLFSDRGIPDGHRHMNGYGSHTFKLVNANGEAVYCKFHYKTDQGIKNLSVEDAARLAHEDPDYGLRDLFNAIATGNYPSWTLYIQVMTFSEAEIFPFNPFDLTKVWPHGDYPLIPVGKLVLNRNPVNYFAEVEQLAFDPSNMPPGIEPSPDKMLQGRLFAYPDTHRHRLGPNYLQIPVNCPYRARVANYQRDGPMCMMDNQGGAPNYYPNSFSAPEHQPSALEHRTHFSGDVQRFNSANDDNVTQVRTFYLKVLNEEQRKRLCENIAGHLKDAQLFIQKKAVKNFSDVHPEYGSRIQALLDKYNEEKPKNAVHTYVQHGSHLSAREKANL
The assay is described as follows: Comparative kinetic studies by ultraviolet-visible spectroscopy (compound II and Fe(II) sulfonium formation). Format: biochemical. To be noted: CAT + 2 mM HCys, 1 mM DTPA, pH 7.4, with the additive named (dimedone 4 mM, BCN 0.1 mM, SOD 40 U). On the procedure:
Ultraviolet–visible spectra were recorded on a Cary 300 Scan or an Uvikon 941 spectrophotometer equipped with a temperature equilibrating water bath (±1 °C). Spectral changes over time were recorded when CAT was incubated with L-HCys (0.2 or 2 mM), L-Cys (0.2, 2 or 9 mM) or GSH (1 or 30 mM) at 25 °C in a 1 ml quartz cuvette containing a solution of CAT (2.7–5.9 μM) in 50 mM KPi, pH 7.4±1 mM DTPA. Due to half-site reactivity of biological thiols with CAT, the data were recorded versus a blank containing half the concentrations of CAT used in the experiments, that is, a solution of 1.35–2.95 μM CAT in 50 mM KPi at pH 7.4±1 mM DTPA. Reactions were initiated by addition of the thiol-containing compounds. Comparative kinetic studies were performed by incubating CAT ([…] in the experiment, 1.35–1.5 μM in the blank) with 2 mM L-HCys in 50 mM KPi, pH 7.4, 1 mM DTPA with or without […], 5,5-dimethyl-1,3-cyclohexanedione (dimedone, 4 mM), BCN (0.1 mM) or SOD, 40 U). All the experiments were performed at least in duplicate.

Take `[Na+].[SH-]` [NaSH]: the IC50 in the assay on HCT-116 cells is 1.8 ± 1.5 µM; in the assay on HCT-15 cells it was 5.8 ± 1.8 µM; in the assay with HT-29 Glc−/+ cells, 15 ± 5.3 µM; in the assay with MDST8 cells, 20.4 ± 4 µM.

As to `NC(CCS)C(=O)O` (centres unmarked) [HCys, homocysteine], at Bovine liver catalase, the “Ultraviolet–visible spectroscopy kobs(6) (CAT–Fe(IV)=O formation)” value is 0.026 ± 0.003 min⁻¹.
